# Measurements taken from patent US20110015119A1, “NOVEL SEMI-SYNTHETIC GLYCOPEPTIDES AS ANTIBACTERIAL AGENTS” (LEAD THERAPEUTICS, INC., priority 2009, published 2011).
# Read-outs that look alike come from different tables or passages of the source.
# Columns and labels:
# Type in all cases: cell-based
# [1] = tested on: Enterococcus faecium 752 (VRE, Van A); test: MIC by broth microdilution, EFcm 752; details: class symbols
# Description: (§1) Antibacterial activity in vitro is investigated by broth microdilution method in Meuller-Hinton broth as recommended by NCCLS. All strains tested are clinical isolates either sensitive or resistant to natural glycopeptides. MIC values were determined using the CLSI-recommended broth microdilution procedure (Clinical and Laboratory Standards Institute, Methods for Dilution Antimicrobial Susceptibility Tests for Bacteria That Grow Aerobically; Approved Standard-Seventh Edition.). Automated liquid handlers (Multidrop 384, Labsystems, Helsinki, Finland; Biomek 2000 and Multimek 96, Beckman Coulter, Fullerton Calif.) were used to conduct serial dilutions and liquid transfers. The MIC value for vancomycin is given for comparison. The abbreviations for organisms tested are as follow: SA 100—Staphylococcus aureus 100 (ATCC 29213); SA 757—Staphylococcus aureus 757 (MRSA); SA 2012—Staphylococcus aureus 2012 (VISA); SE 835—Staphylococcus epidermidis 835; SE 831—Staphylococcus epidermidis 831 (MRSE); EFc 101—Enterococcus faecalis 101 (ATCC 29212); EFc 848—Enterococcus faecalis 848 (VRE, Van A); EFcm 800—Enterococcus faecium 800; EFcm 752—Enterococcus faecium 752 (VRE, Van A); SPNE 1195—Streptococcus pneumoniae 1195 (ATCC 49619); SPY 712—Streptococcus pyogenes 712.
# [2] = tested on: Staphylococcus aureus 100 (ATCC 29213); test: MIC by broth microdilution, SA 100
# Description: as §1
# [3] = tested on: Enterococcus faecalis 101 (ATCC 29212); test: MIC by broth microdilution, EFc 101; details: class symbols
# Description: as §1
# [4] = tested on: Staphylococcus epidermidis 835; test: MIC by broth microdilution, SE 835
# Description: as §1
# [5] = tested on: Enterococcus faecalis 848 (VRE, Van A); test: MIC by broth microdilution, EFc 848; details: class symbols
# Description: as §1
# [6] = tested on: Streptococcus pyogenes 712; test: MIC by broth microdilution, SPY 712
# Description: as §1
# [7] = tested on: Staphylococcus aureus 2012 (VISA); test: MIC by broth microdilution, SA 2012; details: class symbols
# Description: as §1
# [8] = tested on: Staphylococcus aureus 757 (MRSA); test: MIC by broth microdilution, SA 757; details: read-out: MIC SA 757
# Description: as §1
# [9] = tested on: Enterococcus faecium 800; test: MIC by broth microdilution, EFcm 800
# Description: as §1
# [10] = tested on: Streptococcus pneumoniae 1195 (ATCC 49619); test: MIC by broth microdilution, SPNE 1195
# Description: as §1
# [11] = tested on: Staphylococcus epidermidis 831 (MRSE); test: MIC by broth microdilution, SE 831; details: read-out: MIC SE 831
# Description: as §1
# [12] = Enterococcus faecium, VRE, read-out: MIC E FCM 752, Enterococcus faecium 752 (VRE, Van A)
# [13] = Staphylococcus aureus, ATCC29213, read-out: MIC SA 100
# [14] = Enterococcus faecalis, ATCC29212, read-out: MIC E FC 101, Enterococcus faecalis 101 (ATCC 29212)
# [15] = Staphylococcus epidermidis, 835, read-out: MIC SE 835
# [16] = Enterococcus faecalis, VRE, read-out: MIC E FC 848, Enterococcus faecalis 848 (VRE, Van A)
# [17] = Streptococcus pyogenes, 712, read-out: MIC S PYO 712
# [18] = Staphylococcus aureus, VISA, read-out: MIC SA 2012, Staphylococcus aureus 2012 (VISA)
# [19] = Enterococcus faecium, 800, read-out: MIC E FCM 800
# [20] = Streptococcus pneumoniae, ATCC49619, read-out: MIC S PNE 1195
# [21] = Staphylococcus epidermidis, MRSE
# [22] = Enterococcus faecium 752 (VRE, Van A), read-out: MIC E FCM 752
# [23] = ATCC29213, Staphylococcus aureus 100 (ATCC 29213), class symbols, read-out: MIC SA 100
# [24] = ATCC29212, Enterococcus faecalis 101 (ATCC 29212), read-out: MIC E FC 101
# [25] = Staphylococcus epidermidis 835, class symbols, read-out: MIC SE 835
# [26] = Enterococcus faecalis 848 (VRE, Van A), read-out: MIC E FC 848
# [27] = Streptococcus pyogenes 712, class symbols, read-out: MIC S PYO 712
# [28] = Staphylococcus aureus 2012 (VISA), read-out: MIC SA 2012
# [29] = Staphylococcus aureus 757 (MRSA), class symbols
# [30] = Enterococcus faecium 800, class symbols, read-out: MIC E FCM 800
# [31] = ATCC49619, Streptococcus pneumoniae 1195 (ATCC 49619), class symbols, read-out: MIC S PNE 1195
# [32] = Staphylococcus epidermidis 831 (MRSE), class symbols
Structure (SMILES),"MIC [1, 12] [µg/mL]","MIC [2, 13] [µg/mL]","MIC [3, 14] [µg/mL]","MIC [4, 15] [µg/mL]","MIC [5, 16] [µg/mL]","MIC [6, 17] [µg/mL]","MIC [7, 18] [µg/mL]","MIC ([8]; Staphylococcus aureus, MRSA) [µg/mL]","MIC [9, 19] [µg/mL]","MIC [10, 20] [µg/mL]","MIC [11, 21] [µg/mL]","MIC [1, 22] [µg/mL]","MIC [2, 23] [µg/mL]","MIC [3, 24] [µg/mL]","MIC [4, 25] [µg/mL]","MIC [5, 26] [µg/mL]","MIC [6, 27] [µg/mL]","MIC [7, 28] [µg/mL]","MIC [8, 29] [µg/mL]","MIC [9, 30] [µg/mL]",other results
"CCCOc1ccc(NC(=O)Oc2cc(O)c3c(c2)[C@@H](C(=O)O)NC(=O)[C@H]2NC(=O)[C@H](NC(=O)[C@@H]4NC(=O)[C@H](CC(N)=O)NC(=O)[C@H](NC(=O)[C@@H](CC(C)C)NC)[C@H](O)c5ccc(c(Cl)c5)Oc5cc4cc(c5O[C@@H]4O[C@H](CO)[C@@H](O)[C@H](O)[C@H]4O[C@H]4C[C@](C)(N)[C@H](O)[C@H](C)O4)Oc4ccc(cc4Cl)[C@H]2O)c2ccc(O)c-3c2)cc1 (atropisomer, axis not shown) [Compound 329]",> 16,1 to 2,0.5 to 1,2 to 4,> 16,0.01 to 0.5,8 to 16,0.5 to 1,0.5 to 1,0.01 to 0.5,2 to 4,,,,,,,,,,
CCCCc1ccc(NC(=O)Oc2cc(O)c3c(c2)[C@@H](C(=O)NC2C4CC5CC(C4)CC2C5)NC(=O)[C@H]2NC(=O)[C@H](NC(=O)[C@@H]4NC(=O)[C@H](CC(N)=O)NC(=O)[C@H](NC(=O)[C@@H](CC(C)C)NC)[C@H](O)c5ccc(c(Cl)c5)Oc5cc4cc(c5O[C@@H]4O[C@H](CO)[C@@H](O)[C@H](O)[C@H]4O[C@H]4C[C@](C)(N)[C@H](O)[C@H](C)O4)Oc4ccc(cc4Cl)[C@H]2O)c2ccc(O)c-3c2)cc1 (stereo partly drawn) [Compound 331],2 to 4,0.01 to 0.5,0.5 to 1,0.5 to 1,> 16,0.01 to 0.5,1 to 2,0.01 to 0.5,0.01 to 0.5,0.01 to 0.5,0.01 to 0.5,,,,,,,,,,
"CCCCCOc1ccc(S(=O)(=O)NCCCCCCNCc2c(O)cc3c(c2O)-c2cc(ccc2O)[C@H]2NC(=O)[C@@H]4NC(=O)[C@H](CC(N)=O)NC(=O)[C@H](NC(=O)[C@@H](CC(C)C)NC)[C@H](O)c5ccc(c(Cl)c5)Oc5cc4cc(c5O[C@@H]4O[C@H](CO)[C@@H](O)[C@H](O)[C@H]4O[C@H]4C[C@](C)(NC(=O)CN)[C@H](O)[C@H](C)O4)Oc4ccc(cc4Cl)[C@@H](O)[C@H](NC2=O)C(=O)N[C@@H]3C(=O)O)cc1 (atropisomer, axis not shown) [Compound 345]",,,,,,,,,,,,8 to 16,0.01 to 0.5,0.01 to 0.5,0.01 to 0.5,> 16,0.01 to 0.5,0.01 to 0.5,0.01 to 0.5,0.01 to 0.5,"MIC [10, 31]: 0.01 to 0.5 µg/mL; MIC [11, 32]: 0.01 to 0.5 µg/mL"
"CCCCCCCCc1ccc(S(=O)(=O)NCCCCCCNCc2c(O)cc3c(c2O)-c2cc(ccc2O)[C@H]2NC(=O)[C@@H]4NC(=O)[C@H](CC(N)=O)NC(=O)[C@H](NC(=O)[C@@H](CC(C)C)NC)[C@H](O)c5ccc(c(Cl)c5)Oc5cc4cc(c5O[C@@H]4O[C@H](CO)[C@@H](O)[C@H](O)[C@H]4O[C@H]4C[C@](C)(NC(=O)NC5CC5)[C@H](O)[C@H](C)O4)Oc4ccc(cc4Cl)[C@@H](O)[C@H](NC2=O)C(=O)N[C@@H]3C(=O)O)cc1 (atropisomer, axis not shown) [Compound 366]",,,,,,,,,,,,2 to 4,0.01 to 0.5,0.01 to 0.5,0.01 to 0.5,8 to 16,0.01 to 0.5,0.01 to 0.5,0.01 to 0.5,0.01 to 0.5,"MIC [10, 31]: 0.01 to 0.5 µg/mL; MIC [11, 32]: 0.01 to 0.5 µg/mL"
CCCCCCc1ccc(NC(=O)Oc2cc(O)c3c(c2)[C@@H](C(=O)NC2C4CC5CC(C4)CC2C5)NC(=O)[C@H]2NC(=O)[C@H](NC(=O)[C@@H]4NC(=O)[C@H](CC(N)=O)NC(=O)[C@H](NC(=O)[C@@H](CC(C)C)NC)[C@H](O)c5ccc(c(Cl)c5)Oc5cc4cc(c5O[C@@H]4O[C@H](CO)[C@@H](O)[C@H](O)[C@H]4O[C@H]4C[C@](C)(N)[C@H](O)[C@H](C)O4)Oc4ccc(cc4Cl)[C@H]2O)c2ccc(O)c-3c2)cc1 (stereo partly drawn) [Compound 332],8 to 16,1 to 2,1 to 2,1 to 2,> 16,0.01 to 0.5,4 to 8,1 to 2,0.5 to 1,0.01 to 0.5,0.5 to 1,,,,,,,,,,
"CCCCCCc1ccc(NC(=O)NCCCCCCNCc2c(O)cc3c(c2O)-c2cc(ccc2O)[C@H]2NC(=O)[C@@H]4NC(=O)[C@H](CC(N)=O)NC(=O)[C@H](NC(=O)[C@@H](CC(C)C)NC)[C@H](O)c5ccc(c(Cl)c5)Oc5cc4cc(c5O[C@@H]4O[C@H](CO)[C@@H](O)[C@H](O)[C@H]4O[C@H]4C[C@](C)(NC(=O)NC5CC5)[C@H](O)[C@H](C)O4)Oc4ccc(cc4Cl)[C@@H](O)[C@H](NC2=O)C(=O)N[C@@H]3C(=O)O)cc1 (atropisomer, axis not shown) [Compound 368]",,,,,,,,,,,,2 to 4,0.01 to 0.5,0.01 to 0.5,0.01 to 0.5,> 16,0.01 to 0.5,0.5 to 1,0.01 to 0.5,0.01 to 0.5,"MIC [10, 31]: 0.01 to 0.5 µg/mL; MIC [11, 32]: 0.01 to 0.5 µg/mL"
CCCCCCCC(C)NC(=O)Oc1cc(O)c2c(c1)[C@@H](C(=O)NC1C3CC4CC(C3)CC1C4)NC(=O)[C@H]1NC(=O)[C@H](NC(=O)[C@@H]3NC(=O)[C@H](CC(N)=O)NC(=O)[C@H](NC(=O)[C@@H](CC(C)C)NC)[C@H](O)c4ccc(c(Cl)c4)Oc4cc3cc(c4O[C@@H]3O[C@H](CO)[C@@H](O)[C@H](O)[C@H]3O[C@H]3C[C@](C)(N)[C@H](O)[C@H](C)O3)Oc3ccc(cc3Cl)[C@H]1O)c1ccc(O)c-2c1 (stereo partly drawn) [Compound 312],0.5 to 1,0.01 to 0.5,0.01 to 0.5,0.5 to 1,> 16,0.01 to 0.5,> 16,0.01 to 0.5,0.01 to 0.5,0.01 to 0.5,0.01 to 0.5,,,,,,,,,,
"CCCCCOc1ccc(S(=O)(=O)NCCCCCCNCc2c(O)cc3c(c2O)-c2cc(ccc2O)[C@H]2NC(=O)[C@@H]4NC(=O)[C@H](CC(N)=O)NC(=O)[C@H](NC(=O)[C@@H](CC(C)C)NC)[C@H](O)c5ccc(c(Cl)c5)Oc5cc4cc(c5O[C@@H]4O[C@H](CO)[C@@H](O)[C@H](O)[C@H]4O[C@H]4C[C@](C)(NC(=O)[C@@H](C)N)[C@H](O)[C@H](C)O4)Oc4ccc(cc4Cl)[C@@H](O)[C@H](NC2=O)C(=O)N[C@@H]3C(=O)O)cc1 (atropisomer, axis not shown) [Compound 357]",,,,,,,,,,,,4 to 8,0.01 to 0.5,0.01 to 0.5,0.01 to 0.5,> 16,0.01 to 0.5,0.01 to 0.5,0.01 to 0.5,0.01 to 0.5,"MIC [10, 31]: 0.01 to 0.5 µg/mL; MIC [11, 32]: 0.01 to 0.5 µg/mL"
CCCCCOc1ccc(CCNC(=O)Oc2cc(O)c3c(c2)[C@@H](C(=O)NC2C4CC5CC(C4)CC2C5)NC(=O)[C@H]2NC(=O)[C@H](NC(=O)[C@@H]4NC(=O)[C@H](CC(N)=O)NC(=O)[C@H](NC(=O)[C@@H](CC(C)C)NC)[C@H](O)c5ccc(c(Cl)c5)Oc5cc4cc(c5O[C@@H]4O[C@H](CO)[C@@H](O)[C@H](O)[C@H]4O[C@H]4C[C@](C)(N)[C@H](O)[C@H](C)O4)Oc4ccc(cc4Cl)[C@H]2O)c2ccc(O)c-3c2)cc1 (stereo partly drawn) [Compound 338],,0.01 to 0.5,0.01 to 0.5,0.01 to 0.5,,0.01 to 0.5,,0.01 to 0.5,0.01 to 0.5,0.01 to 0.5,0.01 to 0.5,,,,,,,,,,
